Test results published in patent US20150231069A1, “ORAL FORMULATIONS OF CHEMOTHERAPEUTIC AGENTS” (priority 2014, published 2015).
Read-outs that look alike come from different tables or passages of the source.

How the values were obtained:
MCF-7 cells = test: Cytotoxicity against MCF-7 cell growth; type: cell-based, human
Procedure: The cellular uptake of non-targeted and folic acid (FA)-targeted tumor has affinity for folic acid (breast, tumor, ovarian tumors) microbeads as prepared above was evaluated in human breast carcinoma cell, MCF-7. The microbeads are made specifically to be retained by the tumor sites and tumors have affinity toward the drug and conjugate. To investigate the effect of time on the FA-targeted microbead uptake by FR-bearing cells, […]. MCF-7 cells were incubated with free rhodamine B (free R-B), plain micellar rhodamine B (DOMC/R-B) and FA-micellar rhodamine B (DOMC-FA/R-B) for various periods and visualized using fluorescence microscopy. The cytotoxicity of paclitaxel (PTX) in plain micelles (DOMC/PTX) and FA-micellar PTX (DOMC-FA/PTX) was investigated and compared with that of the free PTX and taxol injection using MCF-7 cells. […] In order to elucidate PTX-loaded micelles induced-apoptosis in MCF-7 cells, Hoechst staining of nuclei was observed after different treatments.

[1] = Human clinical bioavailability study, oral versus i.v. paclitaxel; type: in vivo
Procedure: An open label, two-treatment, single dose, two-period, cross-over, […] Paclitaxel BMS formulation (175 mg) in 11 patients (male or female) suffering from solid tumors, cancers and malignancies refractory to standard therapy were treated under fasting condition.
In this part of the study, the oral course and IV course were randomized. […]
The IV formulation of paclitaxel ([…]; Rhône-Poulenc Rorer/Aventis, Antony, France) was used for both IV and oral administration of the agent. One hour before oral paclitaxel administration, patients received 1 mg of oral granisetron and oral CsA capsules (500 mg). Patients who completed the first course of oral paclitaxel were eligible to receive IV paclitaxel.
Pharmacokinetic monitoring was performed during course i.v. and oral paclitaxel administration. For plasma paclitaxel and metabolite concentrations, blood samples of 5 mL each were collected in heparinized tubes. After oral administration, blood samples were obtained before dosing, at time 0 min and then 15, 30, 45, 60, 75, 90 minutes, and 2, 3, 4, 7, 10, 24, 30, and 48 h after paclitaxel ingestion. […] After centrifugation, the plasma was transferred to a polypropylene storage tube and stored at −20° C. until analyzed. Paclitaxel and metabolite concentrations in plasma were determined using a validated high-performance liquid chromatography (HPLC) assay.

[2] = female, C57BL6, mouse, in vivo
[3] = female, FVB wild-type, mouse, in vivo

AUC ([1]; both sexes, plasma, 75 mg/m2, oral 75 mg/m^2, without delivery system, read-out: mean AUC of orally administered paclitaxel): 420 ± 140 ng·h/mL
oral bioavailability (ratio of AUC after oral and after i.v., dose corrected) ([1]; without delivery system): 4.3%±1.8
oral bioavailability (ratio of AUC after oral and after IV, dose corrected) [2]: 6%±1.6
oral bioavailability (ratio of AUC after oral and after i.v., dose corrected) [3]: 6%±1.6
Compound: CC(=O)O[C@H]1C(=O)[C@@]2(C)[C@H]([C@H](OC(=O)c3ccccc3)[C@]3(O)C[C@H](OC(=O)[C@H](O)[C@@H](NC(=O)c4ccccc4)c4ccccc4)C(C)=C1C3(C)C)[C@]1(OC(C)=O)CO[C@@H]1C[C@@H]2O [paclitaxel]
growth of MCF-7 cells (MCF-7 cells): inhibited the growth of MCF-7 cells
